# Measured values: ChEMBL document CHEMBL2016449, “Discovery of a novel chemotype of potent human ENaC blockers using a bioisostere approach. Part 2: α-Branched quaternary amines” (Bioorg Med Chem Lett, 2012)
# System: BE
# Test: Ratio of amiloride IC50 to compound IC50 for human ENaC expressed in HBE cells
# Format: cell-based
# Settings: not given
row,SMILES,Ratio IC50
1,CCC[C@@H](CNC(=O)c1nc(Cl)c(N)nc1N)[N+](C)(C)C.[I-],10

# System: not listed separately
# Test: Blockade of guinea pig ENaC expressed in FRT cells by short-circuit current assay
# Format: cell-based
# Settings: Cavia porcellus
row,IC50,SMILES
1,30 nM,CCC[C@@H](CNC(=O)c1nc(Cl)c(N)nc1N)[N+](C)(C)C.[I-]
2,4 nM,N/C(=N\C(=O)c1nc(Cl)c(N)nc1N)NCCCCc1ccc(OCC(O)CO)cc1 (configuration not stated) [552-02 FREE BASE]

row,SMILES,IC50
1,N=C(N)NC(=O)c1nc(Cl)c(N)nc1N [AMILORIDE],540 nM

# System: Cavia porcellus
# Test: Ratio of amiloride ED50 to compound ED50 for blockade of ENaC in intratracheally dosed Dunkin Hartley guinea pig
# Format: functional
# Settings: not given
row,SMILES,Ratio ED50
1,CCC[C@@H](CNC(=O)c1nc(Cl)c(N)nc1N)[N+](C)(C)C.[I-],16

# System: not listed separately
# Test: Blockade of human ENaC expressed in HBE cells by short-circuit current assay
# Format: cell-based
# Settings: not given
row,IC50,SMILES
1,59 nM,CCCC[C@@H](CNC(=O)c1nc(Cl)c(N)nc1N)[N+](C)(C)C
2,170 nM,C[N+](C)(C)[C@H](CNC(=O)c1nc(Cl)c(N)nc1N)Cc1ccccc1
3,> 10000 nM,C[C@H](CNC(=O)c1nc(Cl)c(N)nc1N)[N+](C)(C)C
4,4 nM,CCC[C@@H](CNC(=O)c1nc(Cl)c(N)nc1N)[N+](C)(C)CCCc1ccc(OC)cc1
5,510 nM,CC[C@H](CNC(=O)c1nc(Cl)c(N)nc1N)[N+](C)(C)C
6,290 nM,CCC[C@H](CNC(=O)c1nc(Cl)c(N)nc1N)[N+](C)(C)C
7,> 30000 nM,CC(C)(CNC(=O)c1nc(Cl)c(N)nc1N)[N+](C)(C)C
8,8090 nM,C[C@@H](CNC(=O)c1nc(Cl)c(N)nc1N)[N+](C)(C)C
9,750 nM,CC[C@@H](CNC(=O)c1nc(Cl)c(N)nc1N)[N+](C)(C)C
10,30 nM,CCC[C@@H](CNC(=O)c1nc(Cl)c(N)nc1N)[N+](C)(C)C.[I-]
11,2 nM,N/C(=N\C(=O)c1nc(Cl)c(N)nc1N)NCCCCc1ccc(OCC(O)CO)cc1 (configuration not stated) [552-02 FREE BASE]
12,19500 nM,CC(C)[C@H](CNC(=O)c1nc(Cl)c(N)nc1N)[N+](C)(C)C
13,2390 nM,CC(C)[C@@H](CNC(=O)c1nc(Cl)c(N)nc1N)[N+](C)(C)C

row,SMILES,IC50
1,N=C(N)NC(=O)c1nc(Cl)c(N)nc1N [AMILORIDE],220 nM

# System: Cavia porcellus
# Test: Blockade of ENaC in intratracheally dosed Dunkin Hartley guinea pig tracheal potential difference model after 1 hr
# Format: functional
# Settings: inhaled or nasal
row,SMILES,ED50
1,CCC[C@@H](CNC(=O)c1nc(Cl)c(N)nc1N)[N+](C)(C)C.[I-],1 µg/kg
2,N/C(=N\C(=O)c1nc(Cl)c(N)nc1N)NCCCCc1ccc(OCC(O)CO)cc1 (configuration not stated) [552-02 FREE BASE],0.2 µg/kg
3,N=C(N)NC(=O)c1nc(Cl)c(N)nc1N [AMILORIDE],16 µg/kg
